Data published in patent US8574608B2, “Bactericidal silver surfactant delivery into coating and polymer compositions” (Eastern Michigan Universtity, priority 2007, dated 2013).
Several values for one entry are separate records, joined by “and”; a condition that tells them apart may be missing. Identical values can stand only once. Like-named read-outs stand apart in the source and are kept apart here.

Key:
[1] = system: Staphylococcus aureus; experiment: Growth on agar plates containing sodium surfactant; format: cell-based; further: test concentration or dose not given here
[2] = system: Bacillus subtilis; experiment: Growth on agar plates containing sodium surfactant; format: cell-based; further: test concentration or dose not given here
[3] = system: Streptococcus viridans; experiment: Growth on agar plates containing sodium surfactant; format: cell-based
[4] = system: Streptococcus bovis; experiment: Growth on agar plates containing sodium surfactant; format: cell-based
[5] = system: Enterococcus fecalis; experiment: Growth on agar plates containing sodium surfactant; format: cell-based; further: test concentration or dose not given here
[6] = system: Staphylococcus epidermidis; experiment: Growth on agar plates containing sodium surfactant; format: cell-based
[7] = system: Streptococcus pyogenes; experiment: Growth on agar plates containing sodium surfactant; format: cell-based
[8] = system: Streptococcus agalactiae; experiment: Growth on agar plates containing sodium surfactant; format: cell-based; further: test concentration or dose not given here
[9] = system: Micrococcus luteus; experiment: Growth on agar plates containing sodium surfactant; format: cell-based
[10] = system: Streptococcus pneumoniae; format: cell-based
[11] = system: Candida tropicalis; format: cell-based
[12] = system: Gram-negative bacteria; format: cell-based
[13] = system: Gram-positive bacteria; format: cell-based
[14] = system: B. subtilis; format: cell-based, Bacillus subtilis
[15] = system: S. aureus; format: cell-based, Staphylococcus aureus
[16] = system: E. coli; experiment: E. coli challenged by silver surfactants in commercial alkyd paint; format: cell-based, Escherichia coli; details: alkyd resin paint coating, 24 h contact time; further: key: A minus sign (−) denotes no growth; a plus sign (+) denotes confluent growth; a capital P (P) denotes particle growth
[17] = system: E. coli; experiment: E. coli challenged by silver surfactants in commercial acrylic paint; format: cell-based, Escherichia coli; details: 24 h contact time; for surviving bacteria (growth): commercial solvent borne acrylate paint coating; on surviving bacteria (growth): key: A minus sign (−) denotes no growth; a plus sign (+) denotes confluent growth; a capital P (P) denotes particle growth
[18] = system: S. aureus; experiment: S. aureus challenged by silver surfactants in laboratory acrylic clearcoat; format: cell-based, Staphylococcus aureus; details: 24 h contact time; for surviving bacteria (growth): laboratory solvent borne acrylate clearcoat; on surviving bacteria (growth): key: A minus sign (−) denotes no growth; a plus sign (+) denotes confluent growth; a capital P (P) denotes particle growth
[19] = system: E. coli; experiment: E. coli challenged by silver surfactants in laboratory acrylic paint; format: cell-based, Escherichia coli; details: 24 h contact time; for surviving bacteria (growth): laboratory solvent borne acrylate paint coating; on surviving bacteria (growth): key: A minus sign (−) denotes no growth; a plus sign (+) denotes confluent growth; a capital P (P) denotes particle growth
[20] = system: E. coli; experiment: E. coli challenged by silver surfactants in commercial 2K epoxy paint; format: cell-based, Escherichia coli; details: 24 h contact time; for surviving bacteria (growth): commercial 2K epoxy paint coating

O=C(CC(C(=O)OC1CCCCC1)S(=O)(=O)[O-])OC1CCCCC1.[Na+] (stereo not drawn) [Compound S5]
Survival: No Growth/Full Growth ([1]; agar plates with sodium surfactant, strain ATCC6538, replicates 1-2 or 1-3): + | Survival: No Growth/Full Growth ([1]; agar plates with sodium surfactant, strain EM24/ATCC25923, replicates 1-2 or 1-3): + | Survival: No Growth/Full Growth ([2]; agar plates with sodium surfactant, strain ATCC33, replicates 1-2 or 1-3): − and + | Survival: No Growth/Full Growth ([2]; agar plates with sodium surfactant, strain EM27, replicates 1-2 or 1-3): + | Survival: No Growth/Full Growth ([3]; agar plates with sodium surfactant, strain EM8, replicates 1-2 or 1-3): + | Survival: No Growth/Full Growth ([4]; agar plates with sodium surfactant, strain EM12, replicates 1-2 or 1-3): − | Survival: No Growth/Full Growth ([5]; agar plates with sodium surfactant, strain EM19, first line, replicates 1-2 or 1-3): + | Survival: No Growth/Full Growth ([5]; agar plates with sodium surfactant, strain EM19, second line, replicates 1-2 or 1-3): + | Survival: No Growth/Full Growth ([6]; agar plates with sodium surfactant, strain EM3/ATCC12228, replicates 1-2 or 1-3): + | Survival: No Growth/Full Growth ([7]; agar plates with sodium surfactant, strain EM14, replicates 1-2 or 1-3): − | Survival: No Growth/Full Growth ([8]; agar plates with sodium surfactant, strain EM13, replicates 1-2 or 1-3): − and + | Survival: No Growth/Full Growth ([9]; agar plates with sodium surfactant, strain EM17, replicates 1-2 or 1-3): − (2×) and +

CCCCCCCCCCCCCOC(=O)CC(C(=O)OCCCCCCCCCCCCC)S(=O)(=O)[O-].[Na+] (stereo not drawn) [Compound S6]
Survival: No Growth/Full Growth [1]: + | Survival: No Growth/Full Growth [2]: − and + | Survival: No Growth/Full Growth [3]: + | Survival: No Growth/Full Growth [4]: − | Survival: No Growth/Full Growth [5]: + | Survival: No Growth/Full Growth [6]: + | Survival: No Growth/Full Growth [7]: − | Survival: No Growth/Full Growth [8]: − and + | Survival: No Growth/Full Growth [9]: + and −

CCCCC(CC)COC(=O)CC(C(=O)OCC(CC)CCCC)S(=O)(=O)[O-].[Na+] (stereo not drawn) [sodium bis[2-ethylhexyl]sulfosuccinate]
Survival: No Growth/Full Growth [1]: − | Survival: No Growth/Full Growth [2]: − | Survival: No Growth/Full Growth [3]: − | Survival: No Growth/Full Growth [4]: − | Survival: No Growth/Full Growth [5]: − | Survival: No Growth/Full Growth [6]: − | Survival: No Growth/Full Growth [10]: − | Survival: No Growth/Full Growth [7]: − | Survival: No Growth/Full Growth [8]: − | Survival: No Growth/Full Growth [11]: − | effect on the yeast Candida tropicalis [11]: killed | Survival: No Growth/Full Growth [9]: − | response of Gram-negative bacteria [12]: resistant | effect on all Gram-positive bacteria tested [13]: killed | killing of B. subtilis [14]: killed all | killing of S. aureus [15]: killed all

silver linearalkanebenzene sulfonate [AgLABS]
surviving bacteria (growth) ([16]; 0.0012 weight % Ag in coating): + | surviving bacteria (growth) ([16]; 0.003 weight % Ag in coating): + | surviving bacteria (growth) ([16]; 0.006 weight % Ag in coating): + | surviving bacteria (growth) ([16]; 0.012 weight % Ag in coating): + | surviving bacteria (growth) ([16]; 0.03 weight % Ag in coating): − | surviving bacteria (growth) ([16]; 0.06 weight % Ag in coating): − | surviving bacteria (growth) ([16]; 0.12 weight % Ag in coating): − | silver level partially effective ([17]; commercial acrylic paint): 0.03 % Ag w/w | surviving bacteria (growth) ([17]; 0.0012 weight % Ag in coating): + | surviving bacteria (growth) ([17]; 0.003 weight % Ag in coating): + | surviving bacteria (growth) ([17]; 0.006 weight % Ag in coating): + | surviving bacteria (growth) ([17]; 0.012 weight % Ag in coating): + | surviving bacteria (growth) ([17]; 0.06 weight % Ag in coating): − | surviving bacteria (growth) ([17]; 0.12 weight % Ag in coating): − | silver level at which partial growth is observed ([18]; laboratory acrylic clearcoat): 0.012 % Ag w/w and 0.006 % Ag w/w | surviving bacteria (growth) ([18]; 0.0012 weight % Ag in coating): − | surviving bacteria (growth) ([18]; 0.003 weight % Ag in coating): − | surviving bacteria (growth) ([18]; 0.03 weight % Ag in coating): − | surviving bacteria (growth) ([18]; 0.06 weight % Ag in coating): − | surviving bacteria (growth) ([18]; 0.12 weight % Ag in coating): − | silver level with partial inhibition (only partial growth) ([19]; laboratory acrylic paint): 0.03% | surviving bacteria (growth) ([19]; 0.0012 weight % Ag in coating): + | surviving bacteria (growth) ([19]; 0.003 weight % Ag in coating): + | surviving bacteria (growth) ([19]; 0.006 weight % Ag in coating): + | surviving bacteria (growth) ([19]; 0.012 weight % Ag in coating): + | surviving bacteria (growth) ([19]; 0.06 weight % Ag in coating): − | surviving bacteria (growth) ([19]; 0.12 weight % Ag in coating): − | surviving bacteria (growth) ([20]; 0.0012 weight % Ag in coating): + | surviving bacteria (growth) ([20]; 0.003 weight % Ag in coating): + | surviving bacteria (growth) ([20]; 0.006 weight % Ag in coating): + | surviving bacteria (growth) ([20]; 0.012 weight % Ag in coating): + | surviving bacteria (growth) ([20]; 0.03 weight % Ag in coating): − | surviving bacteria (growth) ([20]; 0.06 weight % Ag in coating): − | surviving bacteria (growth) ([20]; 0.12 weight % Ag in coating): − | silver level giving complete inhibition of growth ([20]; commercial 2K epoxy paint): 0.03 % w/w
